Biological target: T1, Androgen receptor (Homo sapiens, UniProt P10275)
T1 sequence (P10275 whole entry): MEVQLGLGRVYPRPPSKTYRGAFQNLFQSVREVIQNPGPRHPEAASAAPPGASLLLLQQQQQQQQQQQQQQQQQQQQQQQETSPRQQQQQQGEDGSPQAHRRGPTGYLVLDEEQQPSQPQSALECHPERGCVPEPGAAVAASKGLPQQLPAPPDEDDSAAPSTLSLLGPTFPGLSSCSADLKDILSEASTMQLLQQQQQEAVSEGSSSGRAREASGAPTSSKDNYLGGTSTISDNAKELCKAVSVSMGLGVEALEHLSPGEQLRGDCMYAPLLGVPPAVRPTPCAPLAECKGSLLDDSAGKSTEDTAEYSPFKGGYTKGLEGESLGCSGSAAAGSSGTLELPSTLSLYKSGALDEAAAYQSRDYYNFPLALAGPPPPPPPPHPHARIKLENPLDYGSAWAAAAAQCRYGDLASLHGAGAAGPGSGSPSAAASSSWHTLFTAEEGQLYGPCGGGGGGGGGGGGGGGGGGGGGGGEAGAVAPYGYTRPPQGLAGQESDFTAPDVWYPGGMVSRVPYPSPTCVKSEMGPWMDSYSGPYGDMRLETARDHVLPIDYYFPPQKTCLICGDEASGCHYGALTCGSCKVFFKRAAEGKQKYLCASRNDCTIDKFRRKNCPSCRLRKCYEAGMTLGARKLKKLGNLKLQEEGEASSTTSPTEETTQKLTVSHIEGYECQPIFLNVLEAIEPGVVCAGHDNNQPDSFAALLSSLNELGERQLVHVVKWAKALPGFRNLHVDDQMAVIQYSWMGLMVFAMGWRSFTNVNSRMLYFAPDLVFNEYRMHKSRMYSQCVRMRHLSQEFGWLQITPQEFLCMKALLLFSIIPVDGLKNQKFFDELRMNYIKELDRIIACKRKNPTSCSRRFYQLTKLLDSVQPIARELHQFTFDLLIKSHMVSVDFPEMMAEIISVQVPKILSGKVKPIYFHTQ
Assay: Agonist activity at androgen receptor (unknown origin) expressed in HeLa cells co-expressing PSA-(ARE)4-Luc13 assessed as induction of DHT-induced luciferase activity after […] by luciferase reporter gene assay

| Compound | EC50 [nM] |
| --- | --- |
| COc1ccc2c(c1)c(C)c(CCC(=O)NS(C)(=O)=O)n2C(=O)c1ccc(Cl)cc1 | 0.14 |
| COc1ccc2c(c1)c(C)c(CCC(=O)O)n2C(=O)c1ccc(Cl)cc1 | 0.15 |
| COc1ccc2c(c1)c(CC(=O)NS(=O)(=O)C(F)(F)F)cn2C(=O)c1ccc(Cl)cc1 | 0.1 |
| COc1ccc2c(c1)c(CC(=O)O)c(C)n2C(=O)c1ccc(Cl)cc1 [indometacin] | 0.14 |
